Values joined by “and” are separate entries in the source; they are usually repeats but may differ in a detail not shown here. Identical values can stand only once. Numbers after ± are expanded uncertainties.
Key:
[1] = molar heat capacity at constant pressure; conditions: 101.33 kPa, Crystal, Small sample (50 mg) DSC
[2] = Crystal

SMILES | molar heat capacity at constant pressure ([1]; 283.15 K) | molar heat capacity at constant pressure ([1]; 288.15 K) | molar heat capacity at constant pressure ([1]; 293.15 K) | molar heat capacity at constant pressure ([1]; 298.15 K) | molar heat capacity at constant pressure ([1]; 303.15 K) | molar heat capacity at constant pressure ([1]; 308.15 K) | molar heat capacity at constant pressure ([1]; 313.15 K) | molar heat capacity at constant pressure ([1]; 318.15 K) | molar heat capacity at constant pressure ([1]; 323.15 K) | molar heat capacity at constant pressure ([1]; 328.15 K) | molar heat capacity at constant pressure ([1]; 333.15 K) | mass density ([2]; 296 K, 101.33 kPa, X-ray diffraction) [kg/m3] | Normal melting temperature ([2]; visual observation) [°C]
c1ccc2ccccc2c1 [naphthalene] | 158.4 ± 3.9 J/K/mol | 161.6 ± 4 J/K/mol | 164.8 ± 4.1 J/K/mol | 168 ± 4.2 J/K/mol | 171.2 ± 4.2 J/K/mol | 174.5 ± 4.3 J/K/mol | 177.8 ± 4.4 J/K/mol | 181.1 ± 4.5 J/K/mol | 184.5 ± 4.6 J/K/mol | 187.9 ± 4.7 J/K/mol | 191.3 ± 4.7 J/K/mol |  | 
CCCCC(C#N)(Cn1cncn1)c1ccc(Cl)cc1 (centres undefined) | 343.21 ± 9.5 J/K/mol and 340.09 ± 9.4 J/K/mol | 349.62 ± 9.7 J/K/mol and 349.73 ± 9.7 J/K/mol | 357.56 ± 9.9 J/K/mol and 356.25 ± 9.9 J/K/mol | 364.3 ± 10 J/K/mol and 362.78 ± 10 J/K/mol | 370.21 ± 10 J/K/mol and 369.3 ± 10 J/K/mol | 375.66 ± 10 J/K/mol and 375.82 ± 10 J/K/mol | 381.03 ± 11 J/K/mol and 382.35 ± 11 J/K/mol | 386.69 ± 11 J/K/mol and 388.87 ± 11 J/K/mol | 393.03 ± 11 J/K/mol and 395.39 ± 11 J/K/mol | 400.42 ± 11 J/K/mol and 401.92 ± 11 J/K/mol | 408.44 ± 11 J/K/mol and 409.23 ± 11 J/K/mol | 1238 ± 6 | 70.30 ± 0.58

From the NIST ThermoML archive (doi:10.1016/j.jct.2016.05.014)
